Measured values reported in patent US7943797B2, “Products for the treatment of the iron chlorosis” (Tradecorp, S.A., priority 2006, dated 2011).

Assays:
[1] = test system: Soybean plants (Glycine max L. cv. Stine 0480) with induced Fe chlorosis; test: Efficacy of Fe chelates to provide Fe to soybean plants in hydroponics: SPAD index; format: in vivo; details: for Regreening of plants (SPAD index): 20 days after treatment, regardless of the doses (5 and 10 μM)
Method: (§1) Soybean seeds (Glycine max L. cv. Stine 0480) were germinated at 30° C. and 60% RH on paper moistened with 1 M CaSO4 in dark for 2 days. Afterwards, seedlings were placed in 10 L containers (50 seedlings per container) filled with a 1/5 diluted EDTA buffered nutrient solution (macronutrients (mM)—1.0 Ca(NO3)2, 0.9 KNO3, 0.3 MgSO4, 0.1 KH2PO4; cationic micronutrients (μM)—5.0 EDTA/Fe^3+, 2.5 MnSO4, 1.0 CuSO4, 10 ZnSO4, 1.0 CoSO4, 1.0 NiCl2, 115.5 Na2EDTA; anionic micronutrients (μM)-35 NaCl, 10 H3BO3, 0.05 Na2MoO4; 0.1 mM HEPES) for 6 days. On the 7th day, in order to induce Fe chlorosis, seedlings were transferred to 12 L polypropylene buckets containing aerated full strength EDTA buffered nutrient solution but without Fe^3+-chelate. Plants were grown under these conditions until clear symptoms of Fe deficiency were observed (7 days) and then plants were placed in 2 L pots (6 plants per pot) covered with black plastic to avoid light exposure. The effect of different Fe chelates and doses were compared as Fe sources. Chelates used in the treatments were o,o-EDDHA/Fe^3+, o,p-EDDHA/Fe^3+, EDTA/Fe^3+ and Example 1/Fe^3+. The last one is the Fe chelate of the compound of the example 1: 2-(2-((2-hydroxybenzyl)amino)ethylamino)-2-(2-hydroxyphenyl)acetic acid (DCHA). Nutrient solution contained macronutrients and anionic micronutrients as for the seedling period and the following cationic micronutrients composition: (μM) 1.0 MnSO4, 0.5 CuSO4, 0.5 ZnSO4, 0.1 NiCl2 and 0.1 CoSO4. Also, 1 g·L^−1 of CaCO3 was added to the nutrient solution to buffer pH at 7.5 and to simulate conditions of a calcareous soil. Plants were grown for 21 days in this nutrient solution in a growth chamber provided with fluorescent and sodium vapour lamps with a 16 h/30° C. and 50% humidity day and 8 h/25° C. and 70% humidity night regime. Water was added every 2 days and the nutrient solution was renewed every 7 days. Treatments were replicated four times in a completely randomised design. Plants were harvested after 7, 14 and 21 days.
(§2) During the experiment, SPAD readings with a chlorophyll-meter (Minolta SPAD-502) were taken for all leaf stages (average of two or three readings per stage) every second day. Only values measured for the youngest fully open leaves (the 2nd stage at the 2nd day, the third at the 10th day and the fourth at the 20th day) are here presented (Table 1)

[2] = test system: Soybean plants (Glycine max L. cv. Stine 0480) with induced Fe chlorosis; test: Efficacy of Fe chelates to provide Fe to soybean plants in hydroponics: Fe content in plants; format: in vivo
Method: as §1
Root and shoot were separated and washed using Tween 80 (Merck) and HCl solution and fresh and dry (after oven dry procedure) weights were determined. Samples were ground and after dry digestion in a muffle furnace (480° C.), ashes are dissolved in HCl. Fe, Mn, Cu and Zn were analysed by atomic absorption spectrometry.

[3] = test system: Soybean plants (Glycine max L. cv. Stine 0480) with induced Fe chlorosis; test: Efficacy of Fe chelates to provide Fe to soybean plants in soil conditions: SPAD index; format: in vivo; details: for SPAD index / Recovery from chlorosis (SPAD): calcareous soil; for Recovery from chlorosis (SPAD): two days after the treatment application
Method: (§3) Soybean seeds (Glycine max L. cv. Stine 0480) were germinated at 30° C. and 60% RH on paper moistened with 1 M CaSO4 in dark for 2 days. Afterwards, seedlings were placed in 10 L containers (50 seedlings per container) filled with a 1/5 diluted EDTA buffered nutrient solution (macronutrients (mM)—1.0 Ca(NO3)2, 0.9 KNO3, 0.3 MgSO4, 0.1 KH2PO4; cationic micronutrients (μM)—5.0 EDTA/Fe^3+, 2.5 MnSO4, 1.0 CuSO4, 10 ZnSO4, 1.0 CoSO4, 1.0 NiCl2, 115.5 Na2EDTA; anionic micronutrients (μM)—35 NaCl, 10 H3BO3, 0.05 Na2MoO4; 0.1 mM HEPES) for 4 days. Then, in order to induce Fe chlorosis, nutrient solution without iron was used for two more days and then plants were transplanted in 1 L pots (3 plants per pot) containing 700 g of a calcareous soil ([…] calcium carbonate, 89 g·Kg^−1 CaCO3 active, pH 7.70) and 300 g of lime sand covered with black plastic to avoid light exposure. The effect of different Fe chelates were compared as Fe sources: o,o-EDDHA/Fe^3+, o,p-EDDHA/Fe^3+, EDTA/Fe^3+ and Example 1/Fe^3+. The last one is the Fe chelate of the compound of the example 1: 2-(2-((2-hydroxybenzyl)amino)ethylamino)-2-(2-hydroxyphenyl)acetic acid. Plants were grown for 21 days in this soil conditions in a growth chamber provided with fluorescent and sodium vapour lamps with a 16 h/30° C. and 50% humidity day and 8 h/25° C. and 70% humidity night regime. Treatments were replicated five times in a completely randomised design. Single plants were harvested after 2, 7 and 21 days.
as §2, with “Values” for “Only values”, “the” for “the youngest fully open leaves (the”, “12th” for “10th”, “fourth and fifth” for “fourth”, “22th” for “20th”, “4).” for “1)”

[4] = compared with o,o-EDDHA/Fe^3+; Yunta et al. 2003; cited from earlier work
[5] = test system: Soybean plants (Glycine max L. cv. Stine 0480) with induced Fe chlorosis; test: Efficacy of Fe chelates in soil conditions: shoot dry weight and Fe concentration in leaves; format: in vivo; details: calcareous soil, three sampling times
Method: as §3, with “Plants were grown for 21 days in this soil conditions in a growth chamber provided with fluorescent and sodium vapour lamps with a 16 h/30° C. and 50% humidity day and 8 h/25° C. and 70% humidity night regime. Treatments were replicated five times in a completely randomised design. Single plants were harvested after 2, 7 and 21 days.” left out
In each sampling time shoots were separated and washed using Tween 80 (Merck) and HCl solution and fresh and dry (after oven dry procedure) weights were determined. […] Fe, Mn, Cu and Zn were analysed by atomic absorption spectrometry.

[6] = 5 μM chelate, 2 days after treatment (2nd stage)
[7] = 5 μM chelate, 10 days after treatment (3rd stage)
[8] = 5 μM chelate, 20 days after treatment (4th stage)
[9] = 10 μM chelate, 2 days after treatment (2nd stage)
[10] = 10 μM chelate, 10 days after treatment (3rd stage)
[11] = 10 μM chelate, 20 days after treatment (4th stage)
[12] = 5 μM chelate (low dose), 1st sampling 7 days after treatment
[13] = 5 μM chelate (low dose), 2nd sampling 14 days after treatment
[14] = 5 μM chelate (low dose), 3rd sampling 21 days after treatment
[15] = 10 μM chelate (high dose), 1st sampling 7 days after treatment
[16] = 10 μM chelate (high dose), 2nd sampling 14 days after treatment
[17] = 10 μM chelate (high dose), 3rd sampling 21 days after treatment
[18] = 2 days after treatment (2nd stage)
[19] = 12 days after treatment (3rd stage)
[20] = 22 days after treatment (4th stage)
[21] = 22 days after treatment (5th stage)

SMILES	SPAD index [1, 6]	SPAD index [1, 7]	SPAD index [1, 8]	SPAD index [1, 9]	SPAD index [1, 10]	SPAD index [1, 11]	Fe content [2, 12]	Fe content [2, 13]	Fe content [2, 14]	Fe content [2, 15]	Fe content [2, 16]	Fe content [2, 17]	Regreening of plants (SPAD index) [1]	SPAD index [3, 18]	SPAD index [3, 19]	SPAD index [3, 20]	SPAD index [3, 21]	Recovery from chlorosis (SPAD) [3]	also measured
O=C([O-])CN(CCN(CC(=O)[O-])CC(=O)[O-])CC(=O)[O-].[Fe+3] [EDTA/Fe^3+]	6.8 bcd	6.9 days	11.4 c	8.1 abc	16.6 c	19.9 b	14.2 c μg Fe per plant	19.6 c μg Fe per plant	22.6 c μg Fe per plant	27.7 b μg Fe per plant	32.6 b μg Fe per plant	47.6 b μg Fe per plant	–	–	–	–	–	–	–
O=C([O-])C(NCCNC(C(=O)[O-])c1ccccc1[O-])c1ccc(O)cc1.[Fe+3] (stereo not shown) [o,p-EDDHA/Fe^3+]	8.1 abc	30.9 ab	32.2 a	10.4 a	33.1 a	32.9 a	43.0 ab μg Fe per plant	128 a μg Fe per plant	223 b μg Fe per plant	77.8 a μg Fe per plant	129 a μg Fe per plant	259 a μg Fe per plant	completely regreened	25.8	41.2	33.0	21.0	better recovery	Stability of the Fe3+ chelate [4]: lower stability
O=C([O-])C(NCCNCc1ccccc1[O-])c1ccccc1[O-].[Fe+3] (stereo not shown) [Example 1/Fe^3+]	8.4 abc	32.8 a	34.8 a	8.8 ab	35.7 a	35.0 a	57.4 a μg Fe per plant	152 a μg Fe per plant	268 a μg Fe per plant	69.3 a μg Fe per plant	136 a μg Fe per plant	235 a μg Fe per plant	–	23.9	41.0	34.1	26.6	better recovery	Fe provided to plants compared with the other treatments ([2]; hydroponics, lower Fe application (5 μM)): significantly higher amounts of iron and faster; Dry weight of shoots (FIG. 2) [5]: efficient Fe chlorosis corrector
O=C([O-])C(NCCNC(C(=O)[O-])c1ccccc1[O-])c1ccccc1[O-].[Fe+3] (stereo not shown) [o,o-EDDHA/Fe^3+]	6.2 cd	26.7 b	30.2 a	9.1 ab	31.6 ab	32.4 a	26.0 bc μg Fe per plant	83.6 b μg Fe per plant	202 b μg Fe per plant	61.4 a μg Fe per plant	129 a μg Fe per plant	254 a μg Fe per plant	completely regreened	22.4	42.1	34.1	28.8	–	–
O=C(O)C(NCCNCc1ccccc1O)c1ccccc1O (stereo not shown) [Example 1, 2-(2-((2-hydroxybenzyl)amino)ethylamino)-2-(2-hydroxyphenyl)acetic acid]	–	–	–	–	–	–	–	–	–	–	–	–	completely regreened	–	–	–	–	–	Speed of action to correct iron chlorosis ([1]; low doses, similar to o,p-EDDHA, higher than o,o-EDDHA): fast action to correct iron chlorosis; Efficacy against iron chlorosis ([3]; highly calcareous soil, only one treatment application): efficient to solve iron chlorosis in highly calcareous conditions
